Here are results for ten compounds from ChEMBL document CHEMBL4339249, “Antimicrobial Dolabellanes and Atranones from a Marine-Derived Strain of the Toxigenic Fungus Stachybotrys chartarum” (2019).

Calls of active or inactive are those of the source. No cut-off for these calls is given here.

One experiment deals with Escherichia coli. The experiment is described as follows: Antimicrobial activity against ESBL-producing Escherichia coli ATCC 35218 assessed as inhibition of microbial growth incubated for 16 hrs by broth microdilution method. The following applies: ATCC 35218, 16 h. The experiment is classed as functional. (Dilution methods test growth across graded concentrations, often in twofold steps.)

In another experiment the test system is Acinetobacter baumannii. The experiment is described as follows: Antimicrobial activity against Acinetobacter baumannii ATCC 19606 assessed as inhibition of microbial growth incubated for 16 hrs by broth microdilution method. The experiment is classed as functional. The note with it: ATCC 19606, 16 h.
The next experiment relates to Pseudomonas aeruginosa. The experiment is described as follows: Antimicrobial activity against Pseudomonas aeruginosa ATCC 15442 assessed as inhibition of microbial growth incubated for 16 hrs by broth microdilution method. The experiment is classed as functional. The following applies: ATCC 15442, 16 h.
The next experiment has as its system Klebsiella pneumoniae. The experiment in a line: Antimicrobial activity against Klebsiella pneumoniae ATCC 700603 assessed as inhibition of microbial growth incubated for 16 hrs by broth microdilution method. In kind it is functional. The note with it: Klebsiella pneumoniae, 700603, 16 h.
Another experiment deals with Staphylococcus aureus. The experiment is described as follows: Antimicrobial activity against methicillin-resistant Staphylococcus aureus ATCC 43300 assessed as inhibition of microbial growth incubated for 16 hrs by broth microdilution method. The note with it: ATCC 43300, 16 h. In kind it is functional.
The next experiment concerns Enterococcus faecalis. The experiment in a line: Antimicrobial activity against Enterococcus faecalis ATCC 29212 assessed as inhibition of microbial growth incubated for 16 hrs by broth microdilution method. In kind it is functional. The following applies: ATCC 29212, 16 h.
For experiment [1], the system named is Candida albicans. The experiment is described as follows: Antimicrobial activity against Candida albicans ATCC 10231 assessed as inhibition of microbial growth incubated for 16 hrs by broth microdilution method. In kind it is functional. The following applies: ATCC 10231, 16 h.
Experiment [2] concerns Candida albicans. The experiment is described as follows: Induction of morphological changes in Candida albicans ATCC 10231 assessed as induction of agglutination in cytoplasm at 8 ug/ml incubated for 12 hrs by transmission electron microscopy. The experiment is classed as functional, organism-based.
Experiment [3] deals with Candida albicans. The experiment is described as follows: Induction of morphological changes in Candida albicans ATCC 10231 assessed as induction of cell wall thinning at 8 ug/ml incubated for 12 hrs by transmission electron microscopy. In kind it is functional, organism-based.
The subject of experiment [4] is Candida albicans. The experiment in a line: Induction of morphological changes in Candida albicans ATCC 10231 assessed as induction of deformed cells at 8 ug/ml incubated for 12 hrs by transmission electron microscopy. In kind it is functional, organism-based.
Experiment [5] concerns Candida albicans. The experiment is described as follows: Induction of morphological changes in Candida albicans ATCC 10231 assessed as induction of wrinkled cells at 8 ug/ml incubated for 12 hrs by transmission electron microscopy. In kind it is functional, organism-based.
Experiment [6] relates to Candida albicans. The experiment in a line: Induction of morphological changes in Candida albicans ATCC 10231 assessed as induction of irregular cell shape at 8 ug/ml incubated for 12 hrs by transmission electron microscopy. The experiment is classed as functional, organism-based.
In experiment [7] the test system is Candida albicans. The experiment is described as follows: Induction of morphological changes in Candida albicans ATCC 10231 assessed as induction of cell wall deformation at 16 ug/ml incubated for 12 hrs by transmission electron microscopy. The experiment is classed as functional, organism-based.
Experiment [8] relates to Candida albicans. The experiment in a line: Induction of morphological changes in Candida albicans ATCC 10231 assessed as induction of cell membrane deformation at 16 ug/ml incubated for 12 hrs by transmission electron microscopy. In kind it is functional, organism-based.
Experiment [9] deals with Candida albicans. The experiment is described as follows: Induction of morphological changes in Candida albicans ATCC 10231 assessed as induction of vacuoles formation in cytoplasm at 16 ug/ml incubated for 12 hrs by transmission electron microscopy. In kind it is functional, organism-based.
Experiment [10] concerns Candida albicans. The experiment is described as follows: Induction of morphological changes in Candida albicans ATCC 10231 assessed as induction of cell contents leakage at 16 ug/ml incubated for 12 hrs by transmission electron microscopy. The experiment is classed as functional, organism-based.

In the case of `C/C1=C\[C@H](O)C[C@]2(C)O[C@H]2C[C@@]2(C)C(=O)C=C(C(C)C)[C@@H]2CC1`, the MIC in the experiment on Escherichia coli, with Acinetobacter baumannii, with Pseudomonas aeruginosa, with Klebsiella pneumoniae, in the experiment with Staphylococcus aureus and with Enterococcus faecalis was no less than 100 µg/mL throughout. In addition, the MIC (commonly the lowest concentration found to suppress growth) in the experiment on Candida albicans [1] was no less than 100 µg/mL.

As to `COC(=O)[C@H]1[C@H](C)O[C@@]2(O)[C@H](C)CC[C@@]3(C)OC(=O)C=C(C(C)C)[C@@H]3C[C@H](O)/C(C)=C/[C@H]12`, the MIC in the experiment on Escherichia coli, in the experiment with Acinetobacter baumannii, with Pseudomonas aeruginosa, in the experiment on Klebsiella pneumoniae, with Staphylococcus aureus and with Enterococcus faecalis was no less than 100 µg/mL each time. In addition, the MIC in the experiment with Candida albicans [1] is no less than 100 µg/mL.

`C/C1=C\[C@H](O)[C@H](O)C/C(C)=C/[C@@]2(C)OC(=O)C=C(C(C)C)[C@@H]2CC1`: the MIC in the experiment with Escherichia coli, in the experiment on Acinetobacter baumannii, in the experiment with Pseudomonas aeruginosa, with Klebsiella pneumoniae, in the experiment on Staphylococcus aureus and in the experiment with Enterococcus faecalis was no less than 100 µg/mL in each case. For the same compound, the minimum inhibitory concentration (MIC) in the experiment with Candida albicans [1] is no less than 100 µg/mL.

As for `CC(=O)C[C@H]1/C=C(\C)[C@@H](O)C[C@H]2C(C(C)C)=CC(=O)O[C@]2(C)CC[C@@H](C)C1=O`, the MIC with Escherichia coli was no less than 100 µg/mL; with Acinetobacter baumannii, no less than 100 µg/mL; in the experiment on Pseudomonas aeruginosa, no less than 100 µg/mL; in the experiment on Klebsiella pneumoniae, no less than 100 µg/mL; in the experiment with Staphylococcus aureus it was 32 µg/mL; in the experiment with Enterococcus faecalis, 16 µg/mL. For the same compound, the minimum inhibitory concentration (MIC) in the experiment on Candida albicans [1] turned out to be 8 µg/mL. Moreover, the outcome with Candida albicans [2], in the experiment with Candida albicans [3], with Candida albicans [4], with Candida albicans [5], with Candida albicans [6] and in the experiment with Candida albicans [7] was Active. The outcome in the experiment on Candida albicans [8], in the experiment with Candida albicans [9] and in the experiment with Candida albicans [10] was Active.

Turning to `NCC[C@H](O)C(=O)N[C@@H]1C[C@H](N)[C@@H](O[C@H]2O[C@H](CN)[C@@H](O)[C@H](O)[C@H]2O)[C@H](O)[C@H]1O[C@H]1O[C@H](CO)[C@@H](O)[C@H](N)[C@H]1O` [AMIKACIN], the MIC stood at 4 µg/mL in the experiment with Escherichia coli, 2 µg/mL in the experiment with Acinetobacter baumannii, 2 µg/mL in the experiment with Pseudomonas aeruginosa and 8 µg/mL with Klebsiella pneumoniae.

Consider `CO/N=C(\C(=O)N[C@@H]1C(=O)N2C(C(=O)O)=C(CSc3nc(=O)c(O)nn3C)CS[C@H]12)c1csc(N)n1` [CEFTRIAXONE], for which the MIC was 8 µg/mL with Escherichia coli, 8 µg/mL with Acinetobacter baumannii, 2 µg/mL with Pseudomonas aeruginosa and 2 µg/mL in the experiment with Klebsiella pneumoniae.

Turning to `C/C1=C\[C@H]2/C(=C(/C)CC[C@@]3(CO)C(=O)C=C(C(C)C)[C@@H]3CC1)OC(=O)[C@@H]2[C@H](C)O`, the MIC in the experiment on Escherichia coli, with Acinetobacter baumannii, with Pseudomonas aeruginosa, with Klebsiella pneumoniae, in the experiment with Staphylococcus aureus and in the experiment on Enterococcus faecalis was no less than 100 µg/mL each time. Moreover, the minimum inhibitory concentration (MIC) in the experiment with Candida albicans [1] is no less than 100 µg/mL.

Consider `C/C1=C\[C@H](O)C[C@]2(C)O[C@H]2C[C@@]2(C)OC(=O)C=C(C(C)C)[C@@H]2CC1`, for which the MIC in the experiment with Escherichia coli was no less than 100 µg/mL; in the experiment with Acinetobacter baumannii, 16 µg/mL; in the experiment on Pseudomonas aeruginosa it was no less than 100 µg/mL; in the experiment on Klebsiella pneumoniae, no less than 100 µg/mL; in the experiment on Staphylococcus aureus, no less than 100 µg/mL; with Enterococcus faecalis it was no less than 32 µg/mL. In addition, the minimal inhibitory concentration (MIC) with Candida albicans [1] is no less than 100 µg/mL.

As for `OC(Cn1cncn1)(Cn1cncn1)c1ccc(F)cc1F` [FLUCONAZOLE], the MIC in the experiment on Candida albicans [1] was 1 µg/mL.

Regarding `CN[C@H](CC(C)C)C(=O)N[C@H]1C(=O)N[C@@H](CC(N)=O)C(=O)N[C@H]2C(=O)N[C@H]3C(=O)N[C@H](C(=O)N[C@H](C(=O)O)c4cc(O)cc(O)c4-c4cc3ccc4O)[C@H](O)c3ccc(c(Cl)c3)Oc3cc2cc(c3O[C@@H]2O[C@H](CO)[C@@H](O)[C@H](O)[C@H]2O[C@H]2C[C@](C)(N)[C@H](O)[C@H](C)O2)Oc2ccc(cc2Cl)[C@H]1O` [VANCOMYCIN], in the experiment with Enterococcus faecalis, the MIC came to 0.5 µg/mL.
